These results are taken from patent US8742082B2, “Compositions and methods for influencing satiety, lipid metabolism, and fat utilization” (Nestec S.A., priority 2008, dated 2014).

Molecules are shown by their SMILES.

What all share (type): in vivo
The subject of experiment [1] is Sterol regulatory element binding protein-C 2 (SREBP2 1). Put plainly: Real-time PCR gene expression in peripheral tissues: SREBP2. To be noted: liver; C57bl6j mice, high fat diet, 100 mg/kg/body weight in diet, 5 weeks. Here is the method: (§1) The expression of 45 genes was measured by real-time PCR in peripheral tissues to identify genes that were differentially expressed in response to oral administration of oleoylethanolamide (OEA) or a non-hydrolysable OEA analog (KDS 5104), which affect satiety, lipid metabolism, fat utilization, food intake, and body fat mass.
(§2) Animals, diet, and experimental design. Adult male C57bl6j mice purchased at 8 weeks of age were individually housed and maintained ad libitum on high fat diet and water for 2 weeks. Seven mice were randomly allocated in 3 groups and fed with a high fat diet (lipids represented 50% of daily energy) for 2 weeks. […]
(§3) RNA extraction and gene expression. […] The RNA concentration was determined on nanodrop from the absorbance at 260 nm. […] Real-time quantitative PCR (RT-qPCR) were performed on cDNA obtained as described above using a high through put system (Biomek 3000, Beckman & Coulter, Fullerton, USA) and a Lightcycler 480 (Roche/Hitachi, Basel, Switzerland) with SYBR Green Master mix+kit (Eurogentec, Philadelphia, USA). […] Values were expressed as ratio of RNA levels relative to control mice (diets with 0 mg of OEA/kg/body weight) using ΔΔ(Ct) (Livak K J & Schmittgen T D, 2001, Methods 25:402-8). Gene expression of the following genes was measured (abbreviation and GenBank Accession shown in parentheses). […]
Background: Quantitative PCR measures a nucleic acid by following its amplification.

The subject of experiment [2] is Protein convertase subtilisin/kexin type 9 (PCSK 9). Put plainly: Real-time PCR gene expression in peripheral tissues: PCSK9. To be noted: liver; C57bl6j mice, high fat diet, 100 mg/kg/body weight in diet, 5 weeks. Here is the method: as §1, §2, §3
The test system of experiment [3] is AcylCoA oxidase (ACO). The experiment is described as follows: Real-time PCR gene expression in peripheral tissues: ACO. To be noted: liver; C57bl6j mice, high fat diet, 100 mg/kg/body weight in diet, 5 weeks. As to the method:
as §1, §2, §3

Experiment [4] deals with Fasting induced adipocyte factor (Fiaf). Put plainly: Real-time PCR gene expression in peripheral tissues: Fiaf. The conditions noted are these: C57bl6j mice, high fat diet, 100 mg/kg/body weight in diet, 5 weeks. As to the method: as §1
(§4) Animals, diet, and experimental design. Adult male C57bl6j mice purchased at 8 weeks of age were individually housed and maintained ad libitum on high fat diet and water for 2 weeks. Seven mice were randomly allocated in 3 groups and fed with a high fat diet (lipids represented 50% of daily energy) for 2 weeks. For one kilogram, the composition of the high fat diet was: 235 g casein, 201 g saccharose, 3.5 g L-cystine, 85 g starch, 116 g maltodextrin, 60 g cellulose, 12 g vitamins mix (AIN-93M, UPAE, Jouy-en-Josas, France), 51.5 g mineral mix (AIN-93Vx, UPAE, Jouy-en-Josas, France), and 236 g lard. Then, either OEA or KDS 5104 was added to the diet at a concentration of 100 mg/kg/body weight. The mice were kept under treatment for 5 weeks.
(§5) Sampling. At the end of the experimental period, mice were sacrificed by blood drawing (cardiac puncture) after anesthesia with isoflurane. Plasma was obtained by centrifugation (1,000 g for 10 min at 4° C.). Mesenteric, epididymal, inguinal and peritoneal adipose depots, as well as liver, stomach, small intestine mucosa, pancreas, and gastrocnemian muscle were removed and frozen into liquid nitrogen. Plasma, urine, feces, and organ samples were kept at −80° C. until analysis.
(§6) RNA extraction and gene expression. Total RNA from liver, intestine mucous membrane, adipose tissues, gastrocnemian muscle, pancreas and stomach were extracted with TRIzol reagent (Invitrogen, Carlsbad, USA) according to the manufacturer's instruction. The RNA concentration was determined on nanodrop from the absorbance at 260 nm. Retro-transcription PCRs to synthesize cDNA were performed using an Applied Biosystem Thermal Cycler 2720 and Superscript II (Invitrogen, Carlsbad, USA) according to manufacturer's protocol. Real-time quantitative PCR (RT-qPCR) were performed on cDNA obtained as described above using a high through put system (Biomek 3000, Beckman & Coulter, Fullerton, USA) and a Lightcycler 480 (Roche/Hitachi, Basel, Switzerland) with SYBR Green Master mix+kit (Eurogentec, Philadelphia, USA). Primers for the selected genes were generated using online informatics assistance from the Lightcycler manufacturer (Roche). Databases used to identify the genes were (1) the NCBI database (GenBank) and (2) the IHOP (Information Hyperlinked over Protein) database (www.ihop-net.org/UniPub/iHOP/bng/). Values were expressed as ratio of RNA levels relative to control mice (diets with 0 mg of OEA/kg/body weight) using ΔΔ(Ct) (Livak K J & Schmittgen T D, 2001, Methods 25:402-8). Gene expression of the following genes was measured (abbreviation and GenBank Accession shown in parentheses).
Statistical analysis. […] Statistical analysis of physiological parameters and gene expression data was performed by one-way ANOVA on Statview software (SAS Institute, Cary, USA). Daily food intake was analyzed using two-way ANOVA on Statview software. Statistical significance was set up at the P<0.05 level, the P<0.01 level and the P<0.001 level. For statistical analysis of the gene expression data, values were calculated relative to 18S expression for each mouse and gene.

The subject of experiment [5] is Uncoupling protein 2 (UCP2). Put plainly: Real-time PCR gene expression in peripheral tissues: UCP2. The conditions noted are these: muscle; C57bl6j mice, high fat diet, 100 mg/kg/body weight in diet, 5 weeks. Here is the method:
as §1, §2, §3

For experiment [6], the system named is Fatty acid transporter/cluster of differentiation 36 (FAT/CD 36). Put plainly: Real-time PCR gene expression in peripheral tissues: FAT/CD36. The conditions noted are these: C57bl6j mice, high fat diet, 100 mg/kg/body weight in diet, 5 weeks. As to the method:
as §1, §4, §5, §6
Statistical analysis. Results are presented as means±standard error of the means (SEM). Statistical analysis of physiological parameters and gene expression data was performed by one-way ANOVA on Statview software (SAS Institute, Cary, USA). Daily food intake was analyzed using two-way ANOVA on Statview software. Statistical significance was set up at the P<0.05 level, the P<0.01 level and the P<0.001 level. For statistical analysis of the gene expression data, values were calculated relative to 18S expression for each mouse and gene.

Experiment [7] relates to Fatty Acid Synthase (FAS 1). The experiment is described as follows: Real-time PCR gene expression in peripheral tissues: FAS. The conditions noted are these: liver; C57bl6j mice, high fat diet, 100 mg/kg/body weight in diet, 5 weeks. As to the method: as §1, §2, §3
The test system of experiment [8] is Ghrelin. The experiment is described as follows: Real-time PCR gene expression in peripheral tissues: ghrelin. The conditions noted are these: stomach; C57bl6j mice, high fat diet, 100 mg/kg/body weight in diet, 5 weeks. Here is the method:
as §1, §2, §3

Experiment [9] deals with Peroxisome proliferator activated receptor alpha (PPAR α). Put plainly: Real-time PCR gene expression in peripheral tissues: PPAR α. To be noted: proximal intestine; C57bl6j mice, high fat diet, 100 mg/kg/body weight in diet, 5 weeks. Here is the method: as §1, §2, §3
The nature of experiment [10]: Chronic oral OEA in high fat diet: food intake. To be noted: C3H mice, 4 weeks. An excerpt: The physiological and biochemical effects of chronic oral OEA administration were investigated. Mice were chronically fed with OEA, provided as a supplement during 4 weeks, to study the effect on body weight gain and cumulative food intake, among other parameters.
Animals, diet and experimental design. Adult male C3H mice purchased at 8 weeks of age were individually housed and maintained ad libitum on different diets and water for 2 weeks. Seven mice were allocated in 3 groups by randomization by weight, and fed with a high fat diet (lipids represented 50% of daily energy) during 2 weeks. The composition of the high fat diet per kg was: 284.5 g of corn starch, 89.5 g of saccharose, 250 g of casein, 50 g of cellulose, 10 g of a mix of vitamins (V1001), 35 g of a mix of minerals (S10026) and 281 g of canola oil (UPAE, Jouy en Josas, France). Then, OEA was added to the diets at different levels to provide 0, 10, or 100 mg OEA/kg body weight. The mice were kept on each respective diet for 4 weeks. During the nutritional intervention, daily food intake was monitored and the mice were weighed 3 times a week.
Statistical analysis. Results were determined as mean±standard error of the mean (SEM). Statistical analysis of physiological parameters was performed by one-way ANOVA on Statview software (SAS institute, Cary, USA). Statistical significance was set up at the P<0.05 level.

In the case of `CCCCCCCC/C=C\CCCCCCCC(=O)NCCO` [OEA, N-oleoyl-ethanolamide], the “SREBP2 l, ratio of RNA levels relative to control mice” value in experiment [1] was 1.22. The “PCSK9 l, ratio of RNA levels relative to control mice” value in experiment [2] was determined as 1.44. Also, the “ACO l, ratio of RNA levels relative to control mice” value in experiment [3] is listed as 1.06. Besides, the “Fiaf at ep, ratio of RNA levels relative to control mice” value in [4] (epidydimal adipose tissue) is −1.41. The “Fiaf at per, ratio of RNA levels relative to control mice” value in experiment [4] (peritoneal adipose tissue) is listed as −2.42. Besides, in [4] (proximal intestine), the “Fiaf i, ratio of RNA levels relative to control mice” value is listed as 1.15. For the same compound, the “UCP2 m, ratio of RNA levels relative to control mice” value in experiment [5] amounted to 1.19. In addition, the “FAT/CD36 at ep, ratio of RNA levels relative to control mice” value in experiment [6] (epidydimal adipose tissue) is on record as −1.88. Further, the “FAT/CD36 l, ratio of RNA levels relative to control mice” value in experiment [6] (liver) is on record as 1.45. In addition, in [6] (peritoneal adipose tissue), the “FAT/CD36 at per, ratio of RNA levels relative to control mice” value is given as −1.81. Besides, the “FAT/CD36 i, ratio of RNA levels relative to control mice” value in experiment [6] (proximal intestine) was determined as 1.61. Further, the “FAS l, ratio of RNA levels relative to control mice” value in experiment [7] came out at 1.65. In addition, the “ghrelin s, ratio of RNA levels relative to control mice” value in experiment [8] was 1.98. In addition, the “PPAR α i, ratio of RNA levels relative to control mice” value in experiment [9] came to 1.20. Also, in [10] (10 vs 100 mg/kg body weight), the “Dose dependence of the effect on food intake” value is “not dose dependent”. For the same compound, in experiment [10] (high fat diet, OEA 10 or 100 mg/kg body weight in diet, P<0.05), the “Food intake, change in mice consuming OEA” value is listed as −6.5%.
